Data reported in PubChem BioAssay AID489024 (Sanford-Burnham Center for Chemical Genomics, 2010).
pEC50: −log10 of the molar value. Activity calls are given as the source filed them.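 Rule for the calls: active = compounds whose mean EC50, the dose giving half the maximal reporter activation, is at or below a set limit; inactive = the rest.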

Target: CHO-CHOP luciferase reporter, UPR activation, luminescence
Assay: CHOP reporter induction, apoptotic UPR branch – CHO-CHOP cells, luciferase luminescence, confirmation (AID 489024);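 note: compounds added alone to reporter cells with no tunicamycin stress co-treatment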

| SMILES | pEC50 | EC50 |
| --- | --- | --- |
| O=C(C#Cc1cccc([N+](=O)[O-])c1)c1ccccc1 | 5.05 | – |
| c1ccc(CSC2=NNC(c3ccccn3)S2)cc1 (centres undefined) | 5.37 | – |
| O=[N+]([O-])c1ccc(C=Nc2ccc(Cl)cc2Cl)s1 | 4.86 | – |
| COc1c(Cl)cc(Cl)cc1/C=C/C(=O)c1ccc(NC(=O)c2cccs2)cc1 | 5.33 | – |
| COc1ccccc1N1CCN(Cc2ccc(O)c3ncccc23)CC1 | 4.83 | – |
| CC(C)(C)C1=CC(=O)C(=O)C(C(C)(C)C)=C1 | 5.12 | – |
| CCOc1cc(/C=N/Nc2cc(C)nc(-n3nc(C)cc3C)n2)ccc1O | 4.87 | – |
| O=C(NCCc1ccc(F)cc1)c1coc(=O)c(Br)c1 | 5.02 | – |
| CCOC(=O)c1c(C)oc2c1c(C(c1cccnc1)N1CCCCC1)c(O)c1ccccc12 (centres undefined) | 4.82 | – |
| CCOc1cc(/C=C2\CN(CC)C/C(=C\c3ccc(O)c(OCC)c3)C2=O)ccc1O | 5.20 | – |
| Cn1nc(C(F)(F)F)c(/C=N/OC(=O)c2ccccc2)c1SCc1ccccc1Cl | – | inactive |
| COc1cc(CNc2ccc3[nH]c(=O)[nH]c3c2)cc(Br)c1OCc1ccccc1F | – | > 80 µM (inactive) |
| COc1ccc(N2C(=O)/C(=C/C=C/c3ccccc3[N+](=O)[O-])C(=O)NC2=S)cc1 | – | > 80 µM (inactive) |
| Oc1c(Cl)cc(CN2CCCCC2)c2cccnc12 | 4.82 | – |
| Cc1cccc(Nc2nc3c(S(=O)(=O)c4ccccc4)nnn3c3ccccc23)c1C | – | inactive |
| CCCCC1CCC(C(=O)N(CCCC)c2c(N)n(CCCC)c(=O)[nH]c2=O)CC1 (centres undefined) | – | > 80 µM (inactive) |
| COc1ccc(C(=O)NCC(=O)N/N=C/c2ccc([N+](=O)[O-])o2)cc1OC | – | > 80 µM (inactive) |
| CCCCOC(=O)/C=C\C(=O)NC(N)=O | 4.86 | – |
| CCOC(=O)c1c(NC(C)=O)sc2c1CCC(C=O)=C2Sc1ccccc1 | 5.15 | – |
